Peptide text beside a SMILES is read from it. * marks the point of attachment. Palmitoyl = CCCCCCCCCCCCCCCC(=O)*
Columns and labels:
[1] = Small angle x-ray scattering (SAXS) of PA nanofibers; assay type: physicochemical
Procedure: Small angle x-ray scattering (SAXS): SAXS characterization of the PA nanofibers was performed at the Advanced Photon Source in the Argonne National Laboratory on beamline 5-ID-D, DuPont-Northwestern-Dow Collaborative Access Team Synchrotron Research Center. Samples were prepared at 5 mM in PBS solution, aged at least 24 hours at 4° C., and analyzed in 1.5 mm quartz capillaries (Charles Supper) at 17 keV with a charged couple device photon detector located 245 cm behind the sample. Scattering intensities were collected using wave vector q range of 0.0024 to 0.40 Å^−1. q represents the scattering vector and is calculated as q=4π sin (θ)/λ, with θ as the scattering angle between the incident beam and detector and […] the X-ray wavelength. The plots of scattering intensity versus q were obtained using NIST software Igor Pro v8. The scattering intensities of PBS were subtracted from the PA samples using the Irena SAS macro, and the resulting plots were fitted using NCNR Analysis macro to a polydisperse core shell cylinder model.

[2] = tested on: inducible nitric oxide synthase (iNOS); assay: iNOS expression by flow cytometry; assay type: cell-based, mouse; settings: vs. stimulated control
[3] = TEM nanofiber length of ApoA1-Ac2-26 PA co-assemblies; assay type: physicochemical; settings: aged at least 24 hours at 4° C.
Procedure: TEM: Conventional TEM images were taken on a FEI Tecnai T-12 TEM at 80 kV with a Gatan Orius® 2 k×2 k CCD camera. PAs at 1 mM in phosphate buffered saline (PBS) were prepared for TEM by pipetting 8 μL atop copper supports that were covered with thin carbon foil 400-mesh and treated with glow discharge. After two minutes, samples were rinsed with deionized water and stained with 2% uranyl acetate for two minutes before imaging. PA nanofiber length was quantified manually using Fiji open source image processing software.

Zeta potential = assay type: physicochemical
Procedure: Zeta potential: The PA charge was characterized using a Zetasizer Nano ZS (Malvern). Samples were prepared at 0.5 mM and passed through a 0.2 μm filter (Acrodisc® Syringe Filters with Supor® Membrane, Pall). At least 10 scans were taken per measurement, three measurements per sample at 25° C. and 37° C.

[4] = Treatment study serum chemistry (toxicology analysis); assay type: in vivo, mouse; settings: mouse, in vivo
Procedure: (§1) Blood samples were collected at the end of the treatment study for toxicology analysis. Mice were euthanized three days after their 16th treatment.
(§2) Tissue processing and imaging: Mice were sacrificed and euthanized under inhaled isoflurane anesthesia by diaphragm disruption and exsanguination. Phlebotomy was performed through direct right ventricular cardiac puncture using a 1 mL syringe and 25 G needle. Perfusion was performed through left ventricular cardiac puncture with 10 mL PBS and 10 mL 10% sucrose solution. The lungs, liver, spleen, kidney, aortic root, aortic arch, and descending aorta were harvested and stored in 10% sucrose for 20 minutes. Organs and vessels were then flash-frozen in Optimal Cutting Temperature embedding medium 4583 (Tissue-Tek®) with liquid nitrogen. Frozen specimens were stored at −80° C. and cryosectioned at […]. Confocal microscopy was performed on a Nikon AIR microscope. Two sets of images were acquired with a 10× Plan Fluor NA 0.3 objective. PAs were identified through quantification of the Alexa Fluor® 546 conjugated dye with 561 nm excitation and a 600/50 nm emission filter.
(§3) Statistics: The effect of treatments and sex on atherosclerosis progression in mice was analyzed using one- or two-factor analysis of variance (ANOVA) followed by a post-hoc student's t-test. The toxicological effects of treatments were also analyzed using two-factor ANOVA and a post-hoc student's t-test. Toxicological effects of treatments on liver proteins AST, ALT, and ALP were further analyzed using ordinal logistic regression models of likelihood ratio tests, followed by a post-hoc Wald test

LDLR KO mice = assay: Atherosclerosis treatment study; assay type: in vivo, mouse; settings: both sexes, twice per week over eight weeks, percent of atherosclerosis in the aortic root
Procedure: Mouse model of atherosclerosis: To study atherosclerosis, the LDLR KO mouse was used. LDLR KO mice are fed a high fat “western” diet (Teklad TD.88137) starting at 4 weeks of age. This diet consists of 20% fat, 0.2% cholesterol, and 34% high sucrose. LDLR KO mice fed this diet typically develop severe hypercholesterolemia (>800 mg/dL) and hypertriglyceridemia (>300 mg/dL) after only 2 weeks. By 12 weeks on the high fat diet, atherosclerotic lesions are detected in the aortic root and aortic arch on cryosections stained with Oil Red O (Sigma). Atherosclerosis was quantified in the aortic root as a percentage of the aortic root by taking the atherosclerotic area divided by the total aortic root area. Measurements were made with ImageJ software. All protocols for the animal model and procedures in this manuscript were approved by Northwestern University's Institutional Animal Care and Use Committee.
as §1, §2
Images were acquired with spectral detection and spectrally unmixed to accurately separate green autofluorescence from the red Alexa Fluor® 546 signal. Brightfield and fluorescent microscopy were performed using a Zeiss Axio Imager.A2 microscope with AxioVision software (release 4.8.2, 06-2010). All confocal and fluorescent sections were mounted with ProGold Diamond mounting media (Sigma). Slides were stained with Oil Red O to image and quantify atherosclerosis under brightfield microscopy. The elastic laminae were identified using the green fluorescent protein (GFP) filter with an exposure time of 3500 ms under 5× magnification. Nanofibers were identified in the aortic root by presence of Alexa Fluor® 546 on the Cy3 filter under 5-10× magnification, and in the internal organs under 20× magnification. Fluorescent pixel quantification in the aortic root and within organs was performed with ImageJ software.
as §3

[5] = Off-target localization in internal organs, fluorescent pixel analysis; assay type: in vivo, mouse
Procedure: Dose and concentration study: To determine the optimum concentration for targeting efficacy and safety, LDLR KO mice fed the high fat diet for 14 weeks were injected with PA nanofiber at concentrations of 1 mg/mL, 2 mg/mL, and 4 mg/mL at 8 mg/kg in PBS. Similarly, to determine the optimum dose for targeting efficacy and safety, LDLR KO mice fed the high fat diet for 14 weeks were injected at PA nanofiber doses of 8 mg/kg, 6 mg/kg, 4 mg/kg, 3.3 mg/kg, and 1.7 mg/kg at 2 mg/mL in PBS. Safety, optimum dose, and concentration for targeting was assessed by survival of the animal and fluorescent pixel quantification in the aortic root, liver, lungs, kidneys, and spleen.
as §2
Images were acquired with spectral detection and spectrally unmixed to accurately separate green autofluorescence from the red Alexa Fluor® 546 signal. […] Slides were stained with Oil Red O to image and quantify atherosclerosis under brightfield microscopy. […] Fluorescent pixel quantification in the aortic root and within organs was performed with ImageJ software.

| Compound | SAXS slope of Guinier regime in the low q region ([1]; 5 mM in PBS) | core radius (polydisperse core-shell cylinder model) ([1]; SAXS fit) [nm] | radial shell thickness (polydisperse core-shell cylinder model) ([1]; SAXS fit) [nm] | intracellular iNOS expression of stimulated macrophages [2] | median nanofiber length [3] [nm] | overall charge (zeta potential) (Zeta potential; 25° C.) [mV] | overall charge (zeta potential) (Zeta potential; 37° C.) | Creatine [4] [U/L] | aspartate aminotransferase (AST) in the blood in comparison to PBS [4] | atherosclerosis progression in comparison to the PBS control (LDLR KO mice) | detection in the lung, liver, and kidney ([5]; 1-14 days post injection) | time when red fluorescent pixels returned to non-injected control levels ([5]; all internal organs, post injection) [days] | time of detection in the spleen ([5]; post injection) [days] |
| --- | --- | --- | --- | --- | --- | --- | --- | --- | --- | --- | --- | --- | --- |
| 10% MMP-Ac2-26 PA: co-assembly of 10 mol % MMP-Ac2-26 PA, 50 mol % E2 filler PA, and 40% ApoA1 PA (VVAAEEGGGPQGIWGQGKAMVSEFLKQAWFIENEEQEYVQTVK) | −1.8 | 2.1 | 2.0 | no effect upon iNOS expression | 159 | −18.1±0.5 | maintained |  |  |  |  |  |  |
| CCCCCCCCCCCCCCCC(=O)N[C@H](C(=O)N[C@H](C(=O)N[C@@H](C)C(=O)N[C@@H](C)C(=O)N[C@@H](CCC(=O)O)C(=O)N[C@@H](CCC(=O)O)C(=O)NCC(=O)N[C@@H](CC(=O)O)C(=O)N[C@@H](Cc1c[nH]c2ccccc12)C(=O)N[C@@H](Cc1ccccc1)C(=O)N[C@@H](CCCCN)C(=O)N[C@@H](C)C(=O)N[C@@H](Cc1ccccc1)C(=O)N[C@@H](Cc1ccc(O)cc1)C(=O)N[C@@H](CC(=O)O)C(=O)N[C@@H](CCCCN)C(=O)N[C@H](C(=O)N[C@@H](C)C(=O)N[C@@H](CCC(=O)O)C(=O)N[C@@H](CCCCN)C(=O)N[C@@H](Cc1ccccc1)C(=O)N[C@@H](CCCCN)C(=O)N[C@@H](CCC(=O)O)C(=O)N[C@@H](C)C(=O)N[C@@H](Cc1ccccc1)C(N)=O)C(C)C)C(C)C)C(C)C [ApoA1 PA] (Palmitoyl-VVAAEEGDWFKAFYDKVAEKFKEAF-NH2) |  |  |  |  |  |  |  | 0 | Neither ApoA1-LXR PAs nor ApoA1 PAs increased AST levels | significantly decreased | minimal detection | 10 to 14 | 1 to 10 |
